Measured values reported in ChEMBL document CHEMBL5032516, “Synthesis and structural characterization of a monocarboxylic inhibitor for GRB2 SH2 domain” (Bioorg Med Chem Lett, 2021).

Experiments:
[1] = target: T1, Growth factor receptor-bound protein 2 (Homo sapiens, UniProt P62993); experiment: Displacement of FITC-Ahx-PVPePYINQSVPKRK-NH2 from N-terminal His6-tagged human full length GRB2 (1 to 217 residues) expressed in Escherichia coli by fluorescence anisotropy assay
[2] = Permeability of compound assessed as percentage transport at 500 uM after 5 hrs by PAMPA assay; format: ADME
[3] = target: T1, Growth factor receptor-bound protein 2
[4] = Apparent permeability of compound at 500 uM after 5 hrs by PAMPA assay; format: ADME

T1 sequence (P62993 whole entry, the tested form may be a part): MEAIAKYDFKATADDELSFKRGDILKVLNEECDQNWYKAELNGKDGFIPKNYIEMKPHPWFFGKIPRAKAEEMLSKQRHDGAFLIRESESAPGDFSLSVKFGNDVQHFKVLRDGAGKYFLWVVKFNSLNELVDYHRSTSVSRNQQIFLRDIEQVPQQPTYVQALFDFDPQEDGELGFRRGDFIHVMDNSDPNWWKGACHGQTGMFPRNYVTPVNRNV

Row | Compound | IC50 [1] [nM] | permeability [2] [%] | Ki [3] [nM] | Papp at 5 h, 500 µM [4] [×10⁻⁶ cm/s]
1 | NC(=O)C[C@@H]1NC(=O)C2(CCCCC2)NC(=O)C[C@@H](c2ccc(CP(=O)(O)O)cc2)/C=C/C[C@@H](Cc2cccc3ccccc23)CNC1=O | 350 | 0 | 16 | –
2 | NC(=O)C[C@@H]1NC(=O)C2(CCCCC2)NC(=O)C[C@@H](c2ccc(CC(=O)O)cc2)/C=C/C[C@@H](Cc2cccc3ccccc23)CNC1=O | 740 | 24.3 | 140 | 19.2
3 | COC(=O)Cc1ccc([C@H]2/C=C/C[C@@H](Cc3cccc4ccccc34)CNC(=O)[C@H](CC(N)=O)NC(=O)C3(CCCCC3)NC(=O)C2)cc1 | > 20000 | – | – | –
